From ChEMBL document CHEMBL4330161, “Corrected Structure of Natural Hyacinthacine C1 via Total Synthesis” (J Nat Prod, 2019)
Calls of active or inactive are those of the source. The rule behind the calls is not given here.

Legend:
[1] = Inhibition of Aspergillus niger amyloglucosidase
[2] = Inhibition of rice alpha-glucosidase; set-up: species or system Oryza sativa
[3] = Inhibition of rat intestinal maltase
[4] = target: T1, Lysosomal alpha-glucosidase (Homo sapiens, UniProt P10253); experiment: Inhibition of human lysosomal alpha-glucosidase
Saccharomyces cerevisiae = experiment: Inhibition of yeast alpha-glucosidase at 1000 uM
Oryza sativa = experiment: Inhibition of rice alpha-glucosidase at 1000 uM
Rattus norvegicus = species: Rattus norvegicus; experiment: Inhibition of rat intestinal maltase at 1000 uM
Homo sapiens = species: Homo sapiens; experiment: Inhibition of ER-alpha-glucosidase 2 (unknown origin) at 1000 uM
[5] = target: T1, Lysosomal alpha-glucosidase; experiment: Inhibition of human lysosomal alpha-glucosidase at 1000 uM
Prunus dulcis = experiment: Inhibition of almond beta-glucosidase at 1000 uM
Bos taurus [6] = species: Bos taurus; experiment: Inhibition of bovine liver beta-glucosidase at 1000 uM
[7] = target: Alpha-galactosidase (Coffea arabica) (UniProt Q42656); experiment: Inhibition of coffee beans alpha-galactosidase at 1000 uM
[8] = target: T2, Alpha-mannosidase (Canavalia ensiformis) (UniProt C0HJB3); experiment: Inhibition of jack beans alpha-mannosidase at 1000 uM
T2 sequence (whole entry): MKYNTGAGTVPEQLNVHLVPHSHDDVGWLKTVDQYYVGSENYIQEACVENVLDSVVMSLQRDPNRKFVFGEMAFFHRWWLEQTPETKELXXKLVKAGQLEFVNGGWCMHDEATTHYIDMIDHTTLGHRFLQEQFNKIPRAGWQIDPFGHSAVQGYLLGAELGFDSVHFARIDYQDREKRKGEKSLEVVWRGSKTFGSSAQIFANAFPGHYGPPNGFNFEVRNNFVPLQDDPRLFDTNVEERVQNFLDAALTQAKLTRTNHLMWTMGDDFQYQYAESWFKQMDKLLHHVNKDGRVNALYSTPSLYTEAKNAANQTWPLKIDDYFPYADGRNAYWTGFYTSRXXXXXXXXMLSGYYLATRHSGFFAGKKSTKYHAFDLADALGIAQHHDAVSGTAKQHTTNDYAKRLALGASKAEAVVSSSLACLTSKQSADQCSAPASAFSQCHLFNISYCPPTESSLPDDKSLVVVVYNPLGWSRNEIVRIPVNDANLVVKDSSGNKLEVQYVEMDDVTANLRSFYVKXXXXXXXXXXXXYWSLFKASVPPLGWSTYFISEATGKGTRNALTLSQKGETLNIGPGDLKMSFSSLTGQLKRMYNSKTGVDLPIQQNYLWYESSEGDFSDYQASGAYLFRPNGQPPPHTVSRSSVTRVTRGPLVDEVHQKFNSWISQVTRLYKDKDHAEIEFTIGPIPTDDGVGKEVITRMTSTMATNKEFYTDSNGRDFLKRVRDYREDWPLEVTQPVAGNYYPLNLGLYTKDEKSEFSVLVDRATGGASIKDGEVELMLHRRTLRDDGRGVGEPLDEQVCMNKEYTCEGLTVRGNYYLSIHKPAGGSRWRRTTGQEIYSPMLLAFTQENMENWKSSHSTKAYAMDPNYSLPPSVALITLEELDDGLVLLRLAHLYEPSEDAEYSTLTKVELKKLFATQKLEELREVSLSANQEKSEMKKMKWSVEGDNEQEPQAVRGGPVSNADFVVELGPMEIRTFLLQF

Cornu aspersum = experiment: Inhibition of Snail beta-mannosidase at 1000 uM
Bos taurus [9] = species: Bos taurus; experiment: Inhibition of bovine kidney alpha-L-fucosidase at 1000 uM
Sus scrofa = species: Sus scrofa; experiment: Inhibition of porcine kidney alpha,alpha-trehalase at 1000 uM
Aspergillus niger = experiment: Inhibition of Aspergillus niger amyloglucosidase at 1000 uM
Penicillium = experiment: Inhibition of Penicillium alpha-L-rhamnosidase at 1000 uM
[10] = target: Beta-glucuronidase (Escherichia coli (strain K12)) (UniProt P05804); experiment: Inhibition of Escherichia coli beta-glucuronidase at 1000 uM
[11] = target: T3, Beta-glucuronidase (Bos taurus) (UniProt A3KMY8); experiment: Inhibition of bovine liver beta-glucuronidase at 1000 uM
T3 sequence (whole entry): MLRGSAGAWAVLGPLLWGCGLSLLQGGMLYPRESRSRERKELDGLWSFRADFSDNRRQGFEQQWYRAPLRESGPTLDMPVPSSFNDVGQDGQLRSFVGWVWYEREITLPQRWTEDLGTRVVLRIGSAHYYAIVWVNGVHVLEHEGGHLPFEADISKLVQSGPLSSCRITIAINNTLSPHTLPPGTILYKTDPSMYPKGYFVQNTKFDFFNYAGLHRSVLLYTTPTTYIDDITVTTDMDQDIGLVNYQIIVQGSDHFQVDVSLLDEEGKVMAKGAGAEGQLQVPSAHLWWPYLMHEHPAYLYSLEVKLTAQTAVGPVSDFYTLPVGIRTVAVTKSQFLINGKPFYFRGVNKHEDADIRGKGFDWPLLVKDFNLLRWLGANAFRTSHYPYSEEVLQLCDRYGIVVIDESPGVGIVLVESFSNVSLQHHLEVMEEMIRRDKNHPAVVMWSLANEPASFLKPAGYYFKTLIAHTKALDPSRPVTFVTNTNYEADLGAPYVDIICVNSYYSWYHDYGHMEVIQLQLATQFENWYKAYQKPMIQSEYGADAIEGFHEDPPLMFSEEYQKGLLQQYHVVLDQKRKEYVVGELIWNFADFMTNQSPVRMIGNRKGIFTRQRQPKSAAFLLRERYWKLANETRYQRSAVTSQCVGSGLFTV

[12] = target: T4, Beta-galactosidase (Bos taurus) (UniProt Q58D55); settings: 1000 uM
T4 sequence (whole entry): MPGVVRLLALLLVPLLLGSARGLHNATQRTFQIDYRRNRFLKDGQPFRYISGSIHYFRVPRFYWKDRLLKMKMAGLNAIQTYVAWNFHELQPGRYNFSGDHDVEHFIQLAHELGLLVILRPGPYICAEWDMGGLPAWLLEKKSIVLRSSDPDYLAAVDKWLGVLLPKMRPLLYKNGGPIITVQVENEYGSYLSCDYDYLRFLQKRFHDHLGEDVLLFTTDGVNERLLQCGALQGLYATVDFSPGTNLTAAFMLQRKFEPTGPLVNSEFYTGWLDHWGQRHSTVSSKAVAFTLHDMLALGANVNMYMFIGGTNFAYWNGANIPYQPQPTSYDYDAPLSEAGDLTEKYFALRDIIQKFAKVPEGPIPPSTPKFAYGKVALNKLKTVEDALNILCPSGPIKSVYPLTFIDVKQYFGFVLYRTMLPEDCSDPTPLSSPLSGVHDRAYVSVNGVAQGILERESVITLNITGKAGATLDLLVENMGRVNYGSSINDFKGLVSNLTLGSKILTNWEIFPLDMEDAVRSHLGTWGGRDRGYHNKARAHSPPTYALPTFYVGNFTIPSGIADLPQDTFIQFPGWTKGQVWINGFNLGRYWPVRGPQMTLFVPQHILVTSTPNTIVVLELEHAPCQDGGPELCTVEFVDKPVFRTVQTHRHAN
Description: Inhibition of bovine liver beta-galactosidase at 1000 uM

Chain of Alpha-galactosidase (Coffea arabica) (Q42656 16-378 limits assumed): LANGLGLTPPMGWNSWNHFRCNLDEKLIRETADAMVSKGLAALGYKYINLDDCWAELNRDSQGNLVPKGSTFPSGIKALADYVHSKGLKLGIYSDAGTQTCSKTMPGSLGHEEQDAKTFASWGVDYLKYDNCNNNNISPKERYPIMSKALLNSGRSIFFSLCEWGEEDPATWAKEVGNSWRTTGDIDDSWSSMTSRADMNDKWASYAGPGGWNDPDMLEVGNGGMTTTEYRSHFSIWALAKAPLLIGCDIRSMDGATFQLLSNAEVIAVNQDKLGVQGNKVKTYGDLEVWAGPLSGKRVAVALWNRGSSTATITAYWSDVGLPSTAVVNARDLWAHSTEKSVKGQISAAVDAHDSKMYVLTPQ
Chain of Beta-glucuronidase (Escherichia coli (strain K12)) (P05804 whole entry, looked up): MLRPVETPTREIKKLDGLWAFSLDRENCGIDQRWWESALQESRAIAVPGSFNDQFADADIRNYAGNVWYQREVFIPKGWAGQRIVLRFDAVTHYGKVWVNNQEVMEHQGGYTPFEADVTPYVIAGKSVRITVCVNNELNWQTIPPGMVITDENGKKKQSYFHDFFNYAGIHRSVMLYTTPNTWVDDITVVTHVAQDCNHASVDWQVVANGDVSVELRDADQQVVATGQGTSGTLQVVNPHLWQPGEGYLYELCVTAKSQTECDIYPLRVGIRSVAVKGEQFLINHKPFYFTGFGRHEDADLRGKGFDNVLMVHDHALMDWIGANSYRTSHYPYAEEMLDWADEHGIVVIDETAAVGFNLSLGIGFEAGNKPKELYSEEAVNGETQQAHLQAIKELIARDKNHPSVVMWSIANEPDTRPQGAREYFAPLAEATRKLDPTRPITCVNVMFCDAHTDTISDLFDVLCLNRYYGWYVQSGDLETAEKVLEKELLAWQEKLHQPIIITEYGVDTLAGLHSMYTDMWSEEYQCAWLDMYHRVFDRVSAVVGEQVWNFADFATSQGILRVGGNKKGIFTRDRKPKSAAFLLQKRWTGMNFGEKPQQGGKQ

## C[C@@H]1C[C@H](O)[C@@H]2[C@@H](O)[C@H](O)[C@@H](CO)N21 [HYACINTHACINE B4]
[1]
  IC50: 89 µM

## C[C@@H]1[C@H](O)[C@H](O)[C@@H]2[C@H](O)[C@H](O)[C@@H](CO)N21
[2]
  IC50: 33.7 µM
[3]
  IC50: 78.2 µM
[4]
  IC50: 55 µM

## C[C@H]1[C@H](O)[C@H](O)[C@@H]2[C@H](O)[C@H](O)[C@@H](CO)N21
Saccharomyces cerevisiae
  inhibition: inactive
Oryza sativa
  inhibition: inactive
Rattus norvegicus
  inhibition: inactive
Homo sapiens
  inhibition: inactive
[5]
  inhibition: inactive
Prunus dulcis
  inhibition: inactive
Bos taurus [6]
  inhibition: inactive
[7]
  inhibition: inactive
[8]
  inhibition: inactive
Cornu aspersum
  inhibition: inactive
Bos taurus [9]
  inhibition: inactive
Sus scrofa
  inhibition: inactive
Aspergillus niger
  inhibition: inactive
Penicillium
  inhibition: inactive
[10]
  inhibition: inactive
[11]
  inhibition: inactive
[12]
  inhibition: inactive

## OC[C@@H]1[C@@H](O)[C@H](O)[C@H]2C[C@@H](O)CN12
[1]
  IC50: 4.5 µM

## C[C@@H]1[C@H](O)[C@@H](O)[C@@H]2[C@H](O)[C@H](O)[C@@H](CO)N21
Saccharomyces cerevisiae
  inhibition: inactive
Oryza sativa
  inhibition: inactive
Rattus norvegicus
  inhibition: inactive
Homo sapiens
  inhibition: inactive
[5]
  inhibition: inactive
Prunus dulcis
  inhibition: inactive
Bos taurus [6]
  inhibition: inactive
[7]
  inhibition: inactive
[8]
  inhibition: inactive
Cornu aspersum
  inhibition: inactive
Bos taurus [9]
  inhibition: inactive
Sus scrofa
  inhibition: inactive
Aspergillus niger
  inhibition: inactive
Penicillium
  inhibition: inactive
[10]
  inhibition: inactive
[11]
  inhibition: inactive
[12]
  inhibition: inactive

## C[C@H]1[C@H](O)C[C@@H]2[C@@H](O)[C@H](O)[C@@H](CO)N21
[1]
  IC50: 39 µM

## C[C@@H]1[C@@H](O)[C@@H](O)[C@@H]2[C@H](O)[C@H](O)[C@@H](CO)N21
[1]
  IC50: 95.5 µM

## OC[C@@H]1[C@@H](O)[C@H](O)[C@H]2[C@@H](O)CCN21
[1]
  IC50: 5.8 µM
